Where two headings read alike, the source gives them in different places.
Tests used:
MCF7 (mammary carcinoma) = assay: Cytotoxicity evaluation (cell growth inhibition, SRB, 72 h); type: cell-based; details: read-out: IC50, growth of human tumor cell line MCF7 (breast)
Description: (§1) Taxoids, thus synthesized, were evaluated for their cytotoxicity against human tumor cell line, A2780 (ovarian carcinoma), A2780-DX5 (ovarian carcinoma resistant to doxorubicin), MCF7 (mammary carcinoma) or MCF7-R (mammary carcinoma cells resistant to doxorubicin), after 72 hours drug exposure according to the methods of Skehon, et al., "J. Nat. Cancer Inst. 82, 1107, 1990". […] Lower numbers indicate higher potency. The data represent the means values of at least three separate experiments. Lower numbers indicate stronger cytotoxicity.
(§2) Assessment of cytotoxicity, i.e., cell growth inhibition, was determined according to the methods of Skehan, et al. as discussed in J. Nat. Cancer Inst. 82, 1107, 1990. Briefly, cells were plated between 400 and 1200 cells/well in 96 well plates and incubated at 37° C. for 15-18 h prior to drug addition to allow attachment of cells. Compounds tested were solubilized in 100% DMSO and further diluted in RPMI-1640 containing 10 mM HEPES. Each cell line was treated with 10 concentrations of compounds (5 log range). After a 72 h incubation, […] of ice-cold 50% TCA was added to each well and incubated for 1 h at 4° C. Plates were then washed 5 times with tap water to remove TCA, low-molecular-weight metabolites and serum proteins. Sulforhodamine B (SRB) (0.4%, […]) was added to each well. Following a 5 minute incubation at room temperature, plates were rinsed 5 times with 0.1% acetic acid and air dried. Bound dye was solubilized with 10 mM Tris Base (pH 10.5) for 5 min on a gyratory shaker. Optical density was measured at 570 nm.

[1] = system: MCF7-R (mammary carcinoma cells resistant to doxorubicin); assay: as above; type: cell-based; details: read-out: IC50, growth of human tumor cell line MCF7-R (breast)
Description: as §1, §2

[2] = system: drug-resistant breast cancer cells MCF7-R; assay: MDR reversal: cytostatic activity in combination with paclitaxel or doxorubicin; type: cell-based, human; details: for % IC50 reduction (taxoid + Paclitaxel): taxoid 1 μM + paclitaxel
Description: ^a Treatment consists of concurrent exposure of MCF7R cells to
reversing agent (1 μM) for 72 h in vitro.

[3] = system: A2780 (ovarian carcinoma); assay: Cytotoxicity evaluation (cell growth inhibition, SRB, 72 h); type: cell-based; details: read-out: IC50, growth of human tumor cell line A2780 (ovarian)
Description: as §1, §2

[4] = system: A2780-DX5 (ovarian carcinoma resistant to doxorubicin); assay: as above; type: cell-based; details: read-out: IC50, growth of human tumor cell line A2780-DX5 (ovarian)
Description: as §1, §2

microtubules = details: cited from earlier work
P-glycoprotein mdr 1a = details: Taxol-resistant T1 cells; cited from earlier work
P-glycoprotein mdr 1b = details: cited from earlier work
J7 (parent) cells = details: cited from earlier work
[5] = 72 h exposure, doxorubicin-resistant
[6] = read-out: IC50 (taxoid + Paclitaxel), paclitaxel in presence of taxoid reversing agent (1 μM), 72 h
[7] = 72 h exposure, mean of at least three experiments
[8] = Homo sapiens, MCF7R, without reversing agent, 72 h, read-out: IC50 of anticancer drug alone
[9] = Homo sapiens, A2780, 72 h exposure, mean of at least three experiments
[10] = Homo sapiens, 72 h exposure, doxorubicin-resistant
[11] = Homo sapiens, MCF7, 72 h exposure
[12] = Homo sapiens, MCF7R, 72 h exposure, doxorubicin-resistant

| Compound | IC50 (MCF7 (mammary carcinoma); 72 h exposure) [µM] | IC50 [1, 5] [µM] | % IC50 reduction (taxoid + Paclitaxel) ([2]; 72 h) [%] | IC50 (MCF7 (mammary carcinoma); [11]) [µM] | IC50 [1, 12] [µM] | further results |
| --- | --- | --- | --- | --- | --- | --- |
| 7,10-Bis[3-(4-benzoylphenyl)prop-2-enoyl]-10-deacetylbaccatin III [SB-RA-4102] | > 10 | > 10 | 99.7 | – | – | IC50 [2, 6]: 0.0027 µM |
| 7-[3-(2-Naphtyl)propanoyl]-13-acetylbaccatin III [SB-RA-30012] | > 10 | > 10 | 99.3 | – | – | IC50 [2, 6]: 0.0058 µM |
| 13-(4-Benzoylcinnamoyl)-7,10-bis(2,2,2-trichloroethoxycarbonyl)baccatin III [SB-RA-110] | > 10 | > 10 | – | – | – | IC50 [3, 7]: > 10 µM; IC50 [4, 5]: > 10 µM |
| COc1cccc2c1C(=O)c1c(O)c3c(c(O)c1C2=O)C[C@@](O)(C(=O)CO)C[C@@H]3O[C@H]1C[C@H](N)[C@H](O)[C@H](C)O1 [Doxorubicin, reference compound] | – | – | – | – | – | IC50 ([3]; Homo sapiens, A2780, 72 h): 0.005 µM; IC50 ([4]; Homo sapiens, 72 h): 0.357 µM; IC50 (MCF7 (mammary carcinoma); Homo sapiens, MCF7, 72 h): 0.017 µM; IC50 ([1]; Homo sapiens, MCF7R, 72 h): 1.89 µM; IC50 [2, 8]: 1.89 µM |
| CC(=O)O[C@H]1C(=O)[C@@]2(C)[C@H]([C@H](OC(=O)c3ccccc3)[C@]3(O)C[C@H](OC(=O)[C@H](O)[C@@H](NC(=O)c4ccccc4)c4ccccc4)C(C)=C1C3(C)C)[C@]1(OC(C)=O)CO[C@@H]1C[C@@H]2O [Paclitaxel, reference compound] | – | – | – | – | – | IC50 (MCF7 (mammary carcinoma); Homo sapiens, MCF7, 72 h): 0.0017 µM; IC50 ([1]; Homo sapiens, MCF7R, 72 h): 0.85 µM; IC50 ([2]; Homo sapiens, MCF7R, read-out: IC50 of paclitaxel, taxoid at 1 or 3 μM (from 860 to 42~1.6)): 0.86 µM; IC50 [2, 8]: 0.86 µM |
| CC(=O)O[C@@]12CO[C@@H]1C[C@H](O)[C@@]1(C)C(=O)[C@H](O)C3=C(C)[C@@H](OC(=O)/C=C/c4ccc5ccccc5c4)C[C@@](O)([C@@H](OC(=O)c4ccccc4)[C@H]21)C3(C)C [SB-RA-2001, 13-[3-(2-Naphthyl)prop-2-enoyl]-10-deacetylbaccatin III] | 2 | 5 | – | – | – | IC50 [3, 7]: 2.6 µM; IC50 [4, 5]: 3.8 µM |
| CC(=O)O[C@@]12CO[C@@H]1C[C@H](O)[C@@]1(C)C(=O)[C@H](OC(=O)/C=C/c3ccc(C(=O)c4ccccc4)cc3)C3=C(C)[C@@H](O)C[C@@](O)([C@@H](OC(=O)c4ccccc4)[C@H]21)C3(C)C [SB-RA-4001, 10-[(4-Benzoyl)cinnamoyl]-10-deacetylbaccatin III] | – | – | 95 | 8.5 | > 10 | IC50 [3, 9]: 8 µM; IC50 [4, 10]: 10 µM |
| CC(=O)O[C@H]1C(=O)[C@]2(C)[C@@H](OC(=O)c3ccc4ccccc4c3)C[C@H]3OC[C@@]3(OC(C)=O)[C@H]2[C@H](OC(=O)c2ccccc2)[C@]2(O)C[C@H](O)C(C)=C1C2(C)C [SB-RA-30001, 7-(Naphthalene-2-carbonyl)baccatin III] | – | – | 97.5 | 5.3 | 11 | – |
| CC(=O)O[C@H]1C(=O)[C@]2(C)[C@@H](OC(=O)/C=C/c3ccc4ccccc4c3)C[C@H]3OC[C@@]3(OC(C)=O)[C@H]2[C@H](OC(=O)c2ccccc2)[C@]2(O)C[C@H](O)C(C)=C1C2(C)C [SB-RA-30011, 7-[3-(2-naphthyl)-2-propenoyl]baccatin III] | – | – | 96 | 4.7 | 8 | IC50 [3, 9]: 6.3 µM; IC50 [4, 10]: 6.8 µM; enhancement of the tumor growth inhibitory activity of doxorubicin ([2]; 1 μM taxoid): 92%; % IC50 reduction (taxoid + Doxorubicin) ([2]; taxoid 1 μM + doxorubicin, 72 h): 92% |
| CC(=O)O[C@H]1C(=O)[C@]2(C)[C@@H](OC(=O)CCc3ccc4ccccc4c3)C[C@H]3OC[C@@]3(OC(C)=O)[C@H]2[C@H](OC(=O)c2ccccc2)[C@]2(O)C[C@H](O)C(C)=C1C2(C)C [SB-RA-30021, 7-[3-(2-Naphthyl)propanoyl]baccatin III] | – | – | 96 | 4.9 | 5 | IC50 [3, 9]: 5.7 µM; IC50 [4, 10]: 5.3 µM |
| CC(=O)O[C@H]1C(=O)[C@]2(C)[C@@H](OC(=O)/C=C/c3ccc(C(=O)c4ccccc4)cc3)C[C@H]3OC[C@@]3(OC(C)=O)[C@H]2[C@H](OC(=O)c2ccccc2)[C@]2(O)C[C@H](O)C(C)=C1C2(C)C [SB-RA-31011, 7-[4-Benzoylcinnamoyl]baccatin III] | – | – | 99.8 | 11 | > 10 | – |
| CC(=O)O[C@H]1C(=O)[C@]2(C)[C@@H](OC(=O)/C=C/c3ccc(C(=O)c4ccccc4)cc3)C[C@H]3OC[C@@]3(OC(C)=O)[C@H]2[C@H](OC(=O)c2ccccc2)[C@]2(O)C[C@H](OC(C)=O)C(C)=C1C2(C)C [SB-RA-31012] | – | – | 99.7 | > 10 | > 10 | – |
| CC(=O)O[C@H]1C(=O)[C@@]2(C)[C@H]([C@H](OC(=O)c3ccccc3)[C@]3(O)C[C@H](OC(=O)[C@H](O)[C@@H](NC(=O)CCc4ccc(C(=O)c5ccccc5)cc4)c4ccccc4)C(C)=C1C3(C)C)[C@]1(OC(C)=O)CO[C@@H]1C[C@@H]2O [SB-T-5101] | – | – | – | – | – | binding to microtubules (microtubules): binds to microtubules as expected; binding to P-glycoprotein mdr 1a (P-glycoprotein mdr 1a): binds to both mdr 1a (major) and mdr 1b (minor) in T1 cells; binding to P-glycoprotein mdr 1b (P-glycoprotein mdr 1b; Taxol-resistant T1 cells): binds to both mdr 1a (major) and mdr 1b (minor) in T1 cells; binding to P-glycoprotein mdr 1b (P-glycoprotein mdr 1b; vinblastine-resistant V1 cells): only binds to mdr 1b in V1 cells; photoaffinity labeling of non-drug resistant cells (J7 (parent) cells): no photoaffinity labeling is observed |
